Some test systems named below: RXF 393 renal; SF-268 CNS; MDA-MB-231 breast; SK-MEL-2 melanoma; A498 renal; M14 melanoma; SK-MEL-28 melanoma; BT-549 breast; SF-295 CNS; HT29 colon.
Assay in all cases: NCI-60 cell line screen, 48 h

“And” between values parts separate entries of the source, which are not always exact repeats. Equal values may be shown once.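 Test compounds were applied to cells in 96-well plates for 48 hours at 5 doses. GI50 marks 50% less growth. The concentration for full growth arrest is given as TGI.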

GI50 and TGI data for eight compounds are collected here from PubChem BioAssay (NCI).

On to `COC(=O)c1c2c(c(C)[n+]([O-])c1C)C(=O)C(NCc1ccc(Br)cc1)=CC2=O`, for which the GI50 was 1.99 µM with RXF 393 renal; 2.21 µM in the assay with SF-268 CNS; 1.41 µM with MDA-MB-231 breast; 1.88 µM with SK-MEL-2 melanoma; 1.62 µM in the assay with A498 renal; 1.14 µM in the assay with M14 melanoma. Moreover, the figures for the GI50 in the assay with SK-MEL-28 melanoma and in the assay with BT-549 breast were 4.13 µM and 1.73 µM, respectively. Besides, the TGI was 5.96 µM in the assay with RXF 393 renal; 7.12 µM in the assay on SF-268 CNS; 5.51 µM in the assay on MDA-MB-231 breast; 6.12 µM in the assay on SK-MEL-2 melanoma; 4.35 µM in the assay on A498 renal; 2.46 µM with M14 melanoma. For the same compound, the TGI in the assay with SK-MEL-28 melanoma was more than 100 µM; in the assay with BT-549 breast, 3.52 µM.

`Cc1cc(C(=O)CSC(=S)SC(C)(C)C)ccc1Cl`: the TGI in the assay on RXF 393 renal was determined as 29 µM; in the assay with SF-268 CNS, 33.1 µM; in the assay on SF-295 CNS, 37.1 µM; with MDA-MB-231 breast, 36.4 µM; with SK-MEL-2 melanoma, 35 µM; in the assay on A498 renal it was 29.8 µM. Also, the TGI in the assay on M14 melanoma came out at 30.4 µM; with SK-MEL-28 melanoma it was 35.6 µM; in the assay with BT-549 breast, 53.1 µM; in the assay on HT29 colon, 69 µM.

For the compound `C=CC12CCN(CC1)C(C(O)c1ccnc3ccc(OC)cc13)C2` (stereo not given), the GI50 in the assay on RXF 393 renal is 80 µM; in the assay on SF-268 CNS, more than 100 µM; with SF-295 CNS it was more than 100 µM; in the assay on MDA-MB-231 breast it was more than 100 µM; in the assay on SK-MEL-2 melanoma it was more than 100 µM; in the assay with A498 renal, 60.5 µM. The GI50 with M14 melanoma was 87.1 µM; in the assay with SK-MEL-28 melanoma, 79.8 µM; with BT-549 breast, more than 100 µM; in the assay on HT29 colon it was 61.9 µM. For the same compound, the TGI in the assay with RXF 393 renal, in the assay on SF-268 CNS, with SF-295 CNS, in the assay on MDA-MB-231 breast, in the assay with SK-MEL-2 melanoma and in the assay with A498 renal was more than 100 µM in each case. The TGI with M14 melanoma, with SK-MEL-28 melanoma, in the assay on BT-549 breast and in the assay on HT29 colon was more than 100 µM in each case.

Turning to `NC(=S)N/N=C/c1ncccc1O`, the TGI in the assay with RXF 393 renal was 7.82 µM and 42.6 µM; with SF-268 CNS, 29.6 µM and 89.4 µM; in the assay on SF-295 CNS it was 27.1 µM and 3.94 µM; in the assay with MDA-MB-231 breast it was more than 1000 µM; in the assay on SK-MEL-2 melanoma, > 40 µM and 135 µM; with A498 renal it was 29.2 µM and 32.4 µM. The TGI in the assay with M14 melanoma was 4.72 µM and 2.69 µM; with SK-MEL-28 melanoma it was more than 1000 µM; in the assay with BT-549 breast, more than 1000 µM; in the assay on HT29 colon, more than 1000 µM. Moreover, the GI50 in the assay with SF-268 CNS was 2.88 µM and 0.736 µM; in the assay with SF-295 CNS it was 2.47 µM; in the assay on SK-MEL-2 melanoma, 21.3 µM; in the assay with A498 renal, 3.74 µM; in the assay on M14 melanoma, 0.684 µM; in the assay on SK-MEL-28 melanoma it was 5.86 µM. Also, the GI50 in the assay with BT-549 breast was 1.58 µM; with HT29 colon, 2.72 µM.

For `NC(=O)c1cc(I)ccc1NC(=O)/C=C/c1ccccc1`, the GI50 in the assay on RXF 393 renal was 0.989 µM; with SF-268 CNS, 1.4 µM; with SF-295 CNS, 0.326 µM; with MDA-MB-231 breast it was 0.769 µM; in the assay with SK-MEL-2 melanoma, 2.25 µM; with A498 renal it was 1.28 µM. The GI50 is 0.389 µM in the assay with M14 melanoma, 1.17 µM in the assay with SK-MEL-28 melanoma, 2.39 µM with BT-549 breast and 0.374 µM in the assay on HT29 colon. Also, the TGI was 22.8 µM with RXF 393 renal; 23.7 µM with SF-268 CNS; 3.38 µM with SF-295 CNS; more than 67.2 µM in the assay with MDA-MB-231 breast; more than 56.6 µM in the assay on SK-MEL-2 melanoma; 13 µM in the assay on A498 renal. Also, the TGI is more than 100 µM with M14 melanoma, more than 86.8 µM in the assay on SK-MEL-28 melanoma, 27.5 µM in the assay with BT-549 breast and more than 31.8 µM in the assay with HT29 colon.

`COc1cc2c(cc1OCCCN1CCN(CCCOc3cc4c(cc3OC)C(=O)N3CC(F)(F)C[C@H]3C=N4)CC1)N=C[C@@H]1CC(F)(F)CN1C2=O`: the GI50 was 2.14 µM with RXF 393 renal; 3.57 µM in the assay with SF-268 CNS; 4.29 µM in the assay with MDA-MB-231 breast; 10.3 µM in the assay on SK-MEL-2 melanoma; 2.43 µM in the assay on A498 renal; 3.25 µM in the assay with M14 melanoma. Also, the GI50 in the assay with SK-MEL-28 melanoma is 4.28 µM; with BT-549 breast, 1.95 µM; with HT29 colon it was 3.61 µM. In addition, the TGI was determined as 4.52 µM in the assay with RXF 393 renal; 14.5 µM in the assay with SF-268 CNS; 17.6 µM in the assay with MDA-MB-231 breast; 23.1 µM in the assay with SK-MEL-2 melanoma; 5.95 µM in the assay on A498 renal; 16.5 µM with M14 melanoma. The TGI in the assay with SK-MEL-28 melanoma is 15.2 µM; with BT-549 breast it was 5.36 µM; with HT29 colon it was more than 100 µM.

For the compound `Nc1c(C(=O)Nc2ccccn2)sc2nc3c(cc12)C(=O)CCC3`, the GI50 in the assay on RXF 393 renal was 1.11 µM; in the assay on SF-268 CNS it was 8.26 µM; with SF-295 CNS it was 0.473 µM; with MDA-MB-231 breast, 4.54 µM; in the assay on SK-MEL-2 melanoma, 0.443 µM; with A498 renal, 0.345 µM. The GI50 was 0.483 µM with M14 melanoma, 13.4 µM in the assay on SK-MEL-28 melanoma, 0.332 µM in the assay on BT-549 breast and 0.47 µM in the assay with HT29 colon. Further, the TGI in the assay with RXF 393 renal was 8.88 µM; in the assay with SF-268 CNS, more than 100 µM; with SF-295 CNS, more than 100 µM; in the assay with MDA-MB-231 breast, more than 100 µM; in the assay on SK-MEL-2 melanoma it was more than 100 µM; with A498 renal, more than 100 µM. For the same compound, the TGI in the assay on M14 melanoma, with SK-MEL-28 melanoma, with BT-549 breast and in the assay on HT29 colon was more than 100 µM throughout.

In the case of `COc1ccc(Cl)cc1NC(=O)c1ccc(NC2=C(Cl)C(=O)N(Cc3ccccc3)C2=O)cc1`, the GI50 was 21.3 µM in the assay on RXF 393 renal; 25.3 µM in the assay with SF-268 CNS; 36.2 µM with SF-295 CNS; 26.2 µM with MDA-MB-231 breast; more than 100 µM with A498 renal; more than 100 µM with M14 melanoma. Also, the GI50 in the assay with SK-MEL-28 melanoma was more than 100 µM; in the assay on BT-549 breast, 28.7 µM; in the assay on HT29 colon, 4.8 µM. Besides, the TGI in the assay with RXF 393 renal was 79.3 µM; in the assay with SF-268 CNS, more than 100 µM; with SF-295 CNS, more than 100 µM; in the assay on MDA-MB-231 breast, more than 100 µM; in the assay on A498 renal, more than 100 µM; with M14 melanoma it was more than 100 µM. Also, the TGI in the assay on SK-MEL-28 melanoma, in the assay on BT-549 breast and in the assay with HT29 colon was more than 100 µM in each case.
